Tested on: endothelial cells in MATRIGEL plugs
Experimental: LX1 human lung tumor fragments that were maintained by serial subcutaneous passage in athymic (nu/nu) Balb/c mice were implanted subcutaneously as small fragments approximately 0.1 mm^3 in size. Tumor volume doubling time for this tumor in these studies was 2.8 days. When tumors reached the size range of 150-200 mm^3, liquid [sequence] was injected subcutaneously on the side contralateral to the tumor. Treatment was initiated 24 hours later at varying doses and schedules. Prior to implanting, [sequence] is prepared by placing solidified [sequence] on ice overnight at 4 C. in accordance with the method described by Passiniti et al. (Lab. Invest. 1992 67:519-28). At the liquid phase and while on ice, VEGF and bFGF (Peprotech, Inc. Rocky Hill, N.J.) is added to the [sequence] at final respective concentrations of 75 ng/ml and 300 ng/ml. […] These plugs were then processed for paraffin embedding and sectioned at 5 μm thickness followed by staining with hematoxylin and eosin prior to quantitative analysis. The number of endothelial cells in plugs was quantitated using the IMAGEPRO PLUS software (Media Cybernetics, Inc., Silver Spring, Md.) at a magnification of 20×. […]
Angiogenesis is evaluated in these plugs as the number of endothelial cells migrating into plugs from compound treated groups relative to the vehicle treated group.

Structure (SMILES): COC(=O)O[C@@]12CO[C@@H]1C[C@H](O)[C@@]1(C)C(=O)[C@H](OC(C)=O)C3=C(C)[C@@H](OC(=O)[C@H](O)[C@@H](NC(=O)OC(C)(C)C)C(C)(C)C)C[C@@](O)([C@@H](OC(=O)c4ccccc4)[C@H]21)C3(C)C [Formula I, 3′-tert-butyl-3′-N-tert-butyloxycarbonyl-4-deacetyl-3′-dephenyl-3′-N-debenzoyl-4-O-methoxycarbonyl-paclitaxel]
- dose below MTD at which anti-angiogenic effects are still observed in vivo (fold lower than the maximum tolerated dose): approximately 13 fold
- maximum tolerated dose (MTD) (mice, q2dx5 schedule): 60 mg/kg

Source: US20040143004A1, “Metronomic dosing of taxanes” (priority 2004, published 2004)
